Target: T1, KpCitS (Klebsiella pneumoniae, UniProt P31602)
T1 construct: gene citS; homodimer; TM7-TM8 loop not modelled
T1 sequence (P31602 1-446): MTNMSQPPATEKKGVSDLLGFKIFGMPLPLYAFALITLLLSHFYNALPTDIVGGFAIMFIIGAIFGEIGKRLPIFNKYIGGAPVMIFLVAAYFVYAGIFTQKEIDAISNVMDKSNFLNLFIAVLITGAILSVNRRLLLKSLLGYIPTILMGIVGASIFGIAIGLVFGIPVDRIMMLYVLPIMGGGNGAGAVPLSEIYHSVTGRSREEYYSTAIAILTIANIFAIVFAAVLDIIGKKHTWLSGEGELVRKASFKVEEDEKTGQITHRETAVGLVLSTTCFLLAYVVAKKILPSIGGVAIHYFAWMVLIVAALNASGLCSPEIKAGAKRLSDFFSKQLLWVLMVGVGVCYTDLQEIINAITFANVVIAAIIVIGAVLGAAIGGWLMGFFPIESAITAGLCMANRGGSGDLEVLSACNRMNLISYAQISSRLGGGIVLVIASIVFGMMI
Test: X-ray crystal structures, […]-4.[…] A
Assay type: binding
Conditions: sodium-containing buffer; bound at the transport-domain site in outward-facing and asymmetric forms; one citrate per protomer

In the case of `O=C(O)CC(O)(CC(=O)O)C(=O)O` [citrate], the “X-ray crystal structures, 3.5-4.0 A” value is reported as “Each KpCitS protomer binds one molecule of citrate in the outward-facing and asymmetric conformations”.

From article PMC5451387, “Structural insights into the elevator-like mechanism of the sodium/citrate symporter CitS” (Scientific Reports, 2017)
